In ChEMBL document CHEMBL4507297, “Data for DCP probe PF-04457845” (2021):

Legend:
[1] = target: Activin receptor type-2A (Homo sapiens) (UniProt P27037); settings: Compound concentration 1000.0 nM
[2] = target: Calcium/calmodulin-dependent protein kinase type 1D (Homo sapiens) (UniProt Q8IU85); settings: Compound concentration 1000.0 nM
[3] = target: Calcium/calmodulin-dependent protein kinase type II subunit delta (Homo sapiens) (UniProt Q13557); settings: Compound concentration 1000.0 nM
[4] = target: Cyclin-dependent kinase 13 (Homo sapiens) (UniProt Q14004); settings: Compound concentration 1000.0 nM
[5] = target: Cyclin-dependent kinase 5 (Homo sapiens) (UniProt Q00535); settings: Compound concentration 1000.0 nM
[6] = target: Cyclin-dependent kinase-like 3 (Homo sapiens) (UniProt Q8IVW4); settings: Compound concentration 1000.0 nM
[7] = target: Casein kinase I isoform gamma-2 (Homo sapiens) (UniProt P78368); settings: Compound concentration 1000.0 nM
[8] = target: Death-associated protein kinase 1 (Homo sapiens) (UniProt P53355); settings: Compound concentration 1000.0 nM
[9] = target: Serine/threonine-protein kinase 17A (Homo sapiens) (UniProt Q9UEE5); settings: Compound concentration 1000.0 nM
Serine/threonine-protein kinase 17A (Homo sapiens), sequence (Q9UEE5 whole entry): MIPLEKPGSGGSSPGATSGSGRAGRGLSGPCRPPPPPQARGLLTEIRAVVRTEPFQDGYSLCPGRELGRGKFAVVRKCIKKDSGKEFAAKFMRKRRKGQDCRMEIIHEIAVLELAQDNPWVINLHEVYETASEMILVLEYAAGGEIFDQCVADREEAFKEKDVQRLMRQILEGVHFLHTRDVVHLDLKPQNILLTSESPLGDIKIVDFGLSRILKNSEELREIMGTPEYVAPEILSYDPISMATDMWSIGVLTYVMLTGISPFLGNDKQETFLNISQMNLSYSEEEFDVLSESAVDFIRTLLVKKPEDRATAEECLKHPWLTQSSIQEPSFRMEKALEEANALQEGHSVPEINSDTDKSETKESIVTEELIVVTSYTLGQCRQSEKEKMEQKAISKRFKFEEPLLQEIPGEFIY

[10] = target: Ephrin type-B receptor 1 (Homo sapiens) (UniProt P54762); settings: Compound concentration 1000.0 nM
Ephrin type-B receptor 1 (Homo sapiens), sequence (P54762 whole entry): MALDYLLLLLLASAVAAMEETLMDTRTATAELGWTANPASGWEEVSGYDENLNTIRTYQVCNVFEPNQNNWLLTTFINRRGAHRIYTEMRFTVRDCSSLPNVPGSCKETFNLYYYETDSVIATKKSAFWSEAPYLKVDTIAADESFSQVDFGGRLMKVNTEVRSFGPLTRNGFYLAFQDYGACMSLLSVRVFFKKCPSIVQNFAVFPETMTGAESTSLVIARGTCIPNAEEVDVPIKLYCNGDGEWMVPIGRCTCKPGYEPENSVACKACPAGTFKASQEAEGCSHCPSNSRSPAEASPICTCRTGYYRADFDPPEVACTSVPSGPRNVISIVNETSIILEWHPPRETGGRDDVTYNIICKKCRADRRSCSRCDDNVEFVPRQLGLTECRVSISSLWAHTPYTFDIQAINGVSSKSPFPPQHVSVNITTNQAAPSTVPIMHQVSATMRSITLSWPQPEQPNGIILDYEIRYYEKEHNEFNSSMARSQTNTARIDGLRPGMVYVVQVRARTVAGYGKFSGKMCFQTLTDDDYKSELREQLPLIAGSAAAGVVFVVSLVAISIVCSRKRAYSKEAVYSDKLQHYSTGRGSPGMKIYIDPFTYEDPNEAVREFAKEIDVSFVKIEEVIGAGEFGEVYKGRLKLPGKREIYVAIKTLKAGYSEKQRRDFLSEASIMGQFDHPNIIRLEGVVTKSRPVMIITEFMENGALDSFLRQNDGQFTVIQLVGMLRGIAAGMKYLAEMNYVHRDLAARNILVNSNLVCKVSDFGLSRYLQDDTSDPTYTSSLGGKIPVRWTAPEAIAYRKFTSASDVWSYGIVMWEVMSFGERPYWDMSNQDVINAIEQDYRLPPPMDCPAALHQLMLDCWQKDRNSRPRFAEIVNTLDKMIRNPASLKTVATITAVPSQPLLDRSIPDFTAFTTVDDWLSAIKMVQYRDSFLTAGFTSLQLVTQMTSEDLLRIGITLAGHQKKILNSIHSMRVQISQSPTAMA

[11] = target: Receptor tyrosine-protein kinase erbB-3 (Homo sapiens) (UniProt P21860); settings: Compound concentration 1000.0 nM
[12] = target: Mitogen-activated protein kinase 6 (Homo sapiens) (UniProt Q16659); settings: Compound concentration 1000.0 nM
[13] = target: Fibroblast growth factor receptor 1 (Homo sapiens) (UniProt P11362); settings: Compound concentration 1000.0 nM
[14] = system: eIF-2-alpha kinase GCN2 (Homo sapiens), Q9P2K8 [S808G]; settings: Compound concentration 1000.0 nM
[15] = target: Glycogen synthase kinase-3 alpha (Homo sapiens) (UniProt P49840); settings: Compound concentration 1000.0 nM
[16] = target: Homeodomain-interacting protein kinase 2 (Homo sapiens) (UniProt Q9H2X6); settings: Compound concentration 1000.0 nM
[17] = target: Homeodomain-interacting protein kinase 4 (Homo sapiens) (UniProt Q8NE63); settings: Compound concentration 1000.0 nM
[18] = target: Inhibitor of nuclear factor kappa-B kinase subunit beta (Homo sapiens) (UniProt O14920); settings: Compound concentration 1000.0 nM
[19] = target: Tyrosine-protein kinase JAK3 (Homo sapiens) (UniProt P52333); settings: Compound concentration 1000.0 nM
[20] = system: Mast/stem cell growth factor receptor Kit (Homo sapiens), P10721 [V559D,T670I]; settings: Compound concentration 1000.0 nM
Mast/stem cell growth factor receptor Kit (Homo sapiens), P10721 [V559D,T670I], sequence (P10721 whole entry V559D/T670I): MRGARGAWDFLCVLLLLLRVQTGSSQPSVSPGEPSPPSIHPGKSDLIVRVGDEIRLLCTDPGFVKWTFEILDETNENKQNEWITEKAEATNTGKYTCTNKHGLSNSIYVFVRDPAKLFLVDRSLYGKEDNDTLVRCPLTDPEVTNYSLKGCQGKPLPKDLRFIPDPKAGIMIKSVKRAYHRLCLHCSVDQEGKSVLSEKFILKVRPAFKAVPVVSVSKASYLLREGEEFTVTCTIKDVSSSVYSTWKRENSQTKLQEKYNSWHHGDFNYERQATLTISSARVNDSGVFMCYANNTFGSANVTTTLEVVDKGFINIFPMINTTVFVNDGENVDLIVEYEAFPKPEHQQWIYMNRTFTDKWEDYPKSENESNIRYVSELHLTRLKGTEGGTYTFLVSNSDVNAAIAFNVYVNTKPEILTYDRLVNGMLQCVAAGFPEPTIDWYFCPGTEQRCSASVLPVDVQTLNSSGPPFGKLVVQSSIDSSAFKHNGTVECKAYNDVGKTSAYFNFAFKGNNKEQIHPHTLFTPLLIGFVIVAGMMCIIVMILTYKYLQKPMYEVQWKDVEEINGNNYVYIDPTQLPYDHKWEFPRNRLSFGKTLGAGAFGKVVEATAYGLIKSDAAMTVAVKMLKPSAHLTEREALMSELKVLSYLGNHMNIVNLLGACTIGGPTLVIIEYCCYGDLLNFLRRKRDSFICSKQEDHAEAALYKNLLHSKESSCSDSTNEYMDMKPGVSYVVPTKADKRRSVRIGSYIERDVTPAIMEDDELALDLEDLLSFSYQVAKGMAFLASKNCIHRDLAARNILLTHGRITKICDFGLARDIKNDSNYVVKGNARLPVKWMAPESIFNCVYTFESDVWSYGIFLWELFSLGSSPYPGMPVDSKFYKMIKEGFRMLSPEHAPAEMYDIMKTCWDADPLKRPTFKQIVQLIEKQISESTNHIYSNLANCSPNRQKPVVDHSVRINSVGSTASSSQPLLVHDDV

[21] = system: Mast/stem cell growth factor receptor Kit (Homo sapiens), P10721 [V559D,V654A]; settings: Compound concentration 1000.0 nM
Mast/stem cell growth factor receptor Kit (Homo sapiens), P10721 [V559D,V654A], sequence (P10721 whole entry V559D/V654A): as the sequence (P10721 whole entry V559D/T670I) above, with V654A, I670T counted along it

[22] = target: Serine/threonine-protein kinase LATS2 (Homo sapiens) (UniProt Q9NRM7); settings: Compound concentration 1000.0 nM
[23] = target: Mitogen-activated protein kinase kinase kinase kinase 4 (Homo sapiens) (UniProt O95819); settings: Compound concentration 1000.0 nM
[24] = target: Dual specificity mitogen-activated protein kinase kinase 3 (Homo sapiens) (UniProt P46734); settings: Compound concentration 1000.0 nM
[25] = target: Serine/threonine-protein kinase 26 (Homo sapiens) (UniProt Q9P289); settings: Compound concentration 1000.0 nM
[26] = target: Myosin-IIIa (Homo sapiens) (UniProt Q8NEV4); settings: Compound concentration 1000.0 nM
[27] = target: Serine/threonine-protein kinase 38 (Homo sapiens) (UniProt Q15208); settings: Compound concentration 1000.0 nM
[28] = target: Serine/threonine-protein kinase Nek2 (Homo sapiens) (UniProt P51955); settings: Compound concentration 1000.0 nM
[29] = target: Serine/threonine-protein kinase PAK 6 (Homo sapiens) (UniProt Q9NQU5); settings: Compound concentration 1000.0 nM
[30] = target: Serine/threonine-protein kinase PAK 5 (Homo sapiens) (UniProt Q9P286); settings: Compound concentration 1000.0 nM
[31] = target: Phosphatidylinositol 4-kinase beta (Homo sapiens) (UniProt Q9UBF8); settings: Compound concentration 1000.0 nM
Phosphatidylinositol 4-kinase beta (Homo sapiens), sequence (Q9UBF8 2-816 limits assumed): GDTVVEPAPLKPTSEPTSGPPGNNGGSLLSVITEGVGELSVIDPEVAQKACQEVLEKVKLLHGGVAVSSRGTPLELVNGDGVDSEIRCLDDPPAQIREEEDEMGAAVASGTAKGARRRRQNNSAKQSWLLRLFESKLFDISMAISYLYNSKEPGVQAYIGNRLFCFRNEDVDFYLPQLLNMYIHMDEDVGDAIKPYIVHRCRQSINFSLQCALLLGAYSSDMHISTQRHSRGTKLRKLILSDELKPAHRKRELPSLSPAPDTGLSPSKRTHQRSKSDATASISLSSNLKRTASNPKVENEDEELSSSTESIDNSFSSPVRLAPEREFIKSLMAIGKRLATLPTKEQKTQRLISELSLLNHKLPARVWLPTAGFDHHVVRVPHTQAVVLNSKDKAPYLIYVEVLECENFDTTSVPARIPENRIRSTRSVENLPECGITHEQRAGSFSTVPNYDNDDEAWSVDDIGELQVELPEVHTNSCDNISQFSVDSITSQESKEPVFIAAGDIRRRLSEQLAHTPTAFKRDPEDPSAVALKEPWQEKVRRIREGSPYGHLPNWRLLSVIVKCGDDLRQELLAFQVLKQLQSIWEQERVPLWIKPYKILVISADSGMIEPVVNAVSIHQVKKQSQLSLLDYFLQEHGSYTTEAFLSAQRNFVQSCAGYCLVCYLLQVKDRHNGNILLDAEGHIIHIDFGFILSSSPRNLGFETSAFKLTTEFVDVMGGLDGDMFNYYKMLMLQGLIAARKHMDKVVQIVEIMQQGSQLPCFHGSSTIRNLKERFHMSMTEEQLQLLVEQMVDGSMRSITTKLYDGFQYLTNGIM

[32] = target: Serine/threonine-protein kinase PknB (Mycobacterium tuberculosis) (UniProt P9WI81); settings: Compound concentration 1000.0 nM
Serine/threonine-protein kinase PknB (Mycobacterium tuberculosis), sequence (P9WI81 whole entry): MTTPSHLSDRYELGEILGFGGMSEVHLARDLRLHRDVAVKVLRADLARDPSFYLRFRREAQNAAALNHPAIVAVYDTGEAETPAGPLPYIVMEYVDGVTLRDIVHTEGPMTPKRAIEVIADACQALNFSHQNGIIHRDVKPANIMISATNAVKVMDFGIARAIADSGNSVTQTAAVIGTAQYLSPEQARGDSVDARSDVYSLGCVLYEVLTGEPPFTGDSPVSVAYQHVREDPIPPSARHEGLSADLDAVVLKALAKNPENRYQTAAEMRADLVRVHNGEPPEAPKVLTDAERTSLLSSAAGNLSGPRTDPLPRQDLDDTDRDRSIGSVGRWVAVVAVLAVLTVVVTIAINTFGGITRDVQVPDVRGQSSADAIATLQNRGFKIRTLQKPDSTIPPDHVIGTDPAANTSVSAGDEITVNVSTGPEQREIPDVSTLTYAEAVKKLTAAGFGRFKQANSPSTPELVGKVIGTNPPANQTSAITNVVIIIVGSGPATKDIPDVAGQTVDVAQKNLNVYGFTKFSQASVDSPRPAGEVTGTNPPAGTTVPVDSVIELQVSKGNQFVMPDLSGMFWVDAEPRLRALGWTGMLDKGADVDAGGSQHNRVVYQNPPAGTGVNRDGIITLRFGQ

[33] = target: Serine/threonine-protein kinase PLK4 (Homo sapiens) (UniProt O00444); settings: Compound concentration 1000.0 nM
[34] = target: Protein kinase C epsilon type (Homo sapiens) (UniProt Q02156); settings: Compound concentration 1000.0 nM
[35] = target: Serine/threonine-protein kinase D2 (Homo sapiens) (UniProt Q9BZL6); settings: Compound concentration 1000.0 nM
[36] = target: Ribosomal protein S6 kinase alpha-3 (Homo sapiens) (UniProt P51812); settings: Compound concentration 1000.0 nM
[37] = target: Serine/threonine-protein kinase Sgk3 (Homo sapiens) (UniProt Q96BR1); settings: Compound concentration 1000.0 nM
Serine/threonine-protein kinase Sgk3 (Homo sapiens), sequence (Q96BR1 whole entry): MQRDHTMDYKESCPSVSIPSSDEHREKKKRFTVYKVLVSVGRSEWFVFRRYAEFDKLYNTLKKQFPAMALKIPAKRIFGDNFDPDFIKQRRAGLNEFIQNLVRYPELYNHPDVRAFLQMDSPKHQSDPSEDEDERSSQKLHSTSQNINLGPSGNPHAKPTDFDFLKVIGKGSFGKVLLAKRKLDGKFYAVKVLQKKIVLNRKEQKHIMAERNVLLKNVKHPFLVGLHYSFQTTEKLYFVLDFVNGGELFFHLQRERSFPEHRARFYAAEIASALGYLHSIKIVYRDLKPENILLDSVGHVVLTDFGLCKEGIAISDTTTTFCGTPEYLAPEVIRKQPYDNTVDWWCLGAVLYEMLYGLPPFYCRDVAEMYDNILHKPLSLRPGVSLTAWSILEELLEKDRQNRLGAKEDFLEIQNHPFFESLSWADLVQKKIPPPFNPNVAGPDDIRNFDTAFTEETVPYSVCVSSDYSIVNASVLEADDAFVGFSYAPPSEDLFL

[38] = target: NUAK family SNF1-like kinase 2 (Homo sapiens) (UniProt Q9H093); settings: Compound concentration 1000.0 nM
[39] = target: Tyrosine-protein kinase Srms (Homo sapiens) (UniProt Q9H3Y6); settings: Compound concentration 1000.0 nM
[40] = target: SRSF protein kinase 1 (Homo sapiens) (UniProt Q96SB4); settings: Compound concentration 1000.0 nM
[41] = target: STE20/SPS1-related proline-alanine-rich protein kinase (Homo sapiens) (UniProt Q9UEW8); settings: Compound concentration 1000.0 nM
[42] = target: Mitogen-activated protein kinase kinase kinase 7 (Homo sapiens) (UniProt O43318); settings: Compound concentration 1000.0 nM
[43] = target: Non-receptor tyrosine-protein kinase TNK1 (Homo sapiens) (UniProt Q13470); settings: Compound concentration 1000.0 nM
Non-receptor tyrosine-protein kinase TNK1 (Homo sapiens), sequence (Q13470 whole entry): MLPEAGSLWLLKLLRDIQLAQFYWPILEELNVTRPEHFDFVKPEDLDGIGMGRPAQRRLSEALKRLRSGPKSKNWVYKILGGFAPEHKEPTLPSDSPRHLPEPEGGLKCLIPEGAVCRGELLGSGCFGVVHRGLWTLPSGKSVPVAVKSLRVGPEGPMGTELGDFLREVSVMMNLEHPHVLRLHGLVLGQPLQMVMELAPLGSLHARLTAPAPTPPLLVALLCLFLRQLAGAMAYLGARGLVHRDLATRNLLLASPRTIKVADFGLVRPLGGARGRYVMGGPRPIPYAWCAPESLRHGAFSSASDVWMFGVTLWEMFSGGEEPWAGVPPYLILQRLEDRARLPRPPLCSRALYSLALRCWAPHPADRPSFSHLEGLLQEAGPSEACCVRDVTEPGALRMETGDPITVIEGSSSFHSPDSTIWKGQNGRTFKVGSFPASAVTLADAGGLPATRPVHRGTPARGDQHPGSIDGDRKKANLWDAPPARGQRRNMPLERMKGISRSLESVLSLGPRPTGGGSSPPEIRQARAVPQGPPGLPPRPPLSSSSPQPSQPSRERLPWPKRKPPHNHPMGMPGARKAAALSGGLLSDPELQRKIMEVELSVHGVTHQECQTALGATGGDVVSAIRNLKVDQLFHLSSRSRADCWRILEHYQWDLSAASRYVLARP

[44] = target: BDNF/NT-3 growth factors receptor (Homo sapiens) (UniProt Q16620); settings: Compound concentration 1000.0 nM
[45] = target: Histamine H1 receptor (Homo sapiens) (UniProt P35367); settings: Compound concentration 10.0 uM

O=C(Nc1cccnn1)N1CCC(=Cc2cccc(Oc3ccc(C(F)(F)F)cn3)c2)CC1
inactive: residual activity [1] 100% | residual activity [2] 97% | residual activity [3] 82% | residual activity [4] 100% | residual activity [5] 92% | residual activity [6] 81% | residual activity [7] 92% | residual activity [8] 100% | residual activity [9] 79% | residual activity [10] 100% | residual activity [11] 84% | residual activity [12] 90% | residual activity [13] 100% | residual activity [14] 87% | residual activity [15] 100% | residual activity [16] 100% | residual activity [17] 100% | residual activity [18] 83% | residual activity [19] 100% | residual activity [20] 96% | residual activity [21] 100% | residual activity [22] 84% | residual activity [23] 100% | residual activity [24] 100% | residual activity [25] 100% | residual activity [26] 100% | residual activity [27] 100% | residual activity [28] 100% | residual activity [29] 100% | residual activity [30] 100% | residual activity [31] 100% | residual activity [32] 95% | residual activity [33] 100% | residual activity [34] 82% | residual activity [35] 94% | residual activity [36] 100% | residual activity [37] 93% | residual activity [38] 88% | residual activity [39] 95% | residual activity [40] 97% | residual activity [41] 100% | residual activity [42] 100% | residual activity [43] 98% | residual activity [44] 100% | inhibition [45] 27.2%

O=C(Nc1cccnn1)N1CC(C/C=C/c2cncc(Oc3ccc(C(F)(F)F)cn3)n2)C1
inactive: residual activity [1] 100% | residual activity [2] 100% | residual activity [3] 100% | residual activity [4] 98% | residual activity [5] 100% | residual activity [6] 95% | residual activity [7] 100% | residual activity [8] 98% | residual activity [9] 100% | residual activity [10] 100% | residual activity [11] 99% | residual activity [12] 100% | residual activity [13] 100% | residual activity [14] 97% | residual activity [15] 92% | residual activity [16] 89% | residual activity [17] 92% | residual activity [18] 94% | residual activity [19] 100% | residual activity [20] 100% | residual activity [21] 100% | residual activity [22] 100% | residual activity [23] 100% | residual activity [24] 72% | residual activity [25] 71% | residual activity [26] 100% | residual activity [27] 99% | residual activity [28] 100% | residual activity [29] 100% | residual activity [30] 95% | residual activity [31] 91% | residual activity [32] 87% | residual activity [33] 98% | residual activity [34] 100% | residual activity [35] 100% | residual activity [36] 89% | residual activity [37] 87% | residual activity [38] 73% | residual activity [39] 67% | residual activity [40] 82% | residual activity [41] 77% | residual activity [42] 93% | residual activity [43] 100% | residual activity [44] 77% | inhibition [45] 30.9%
